The text below walks through data of US20240335425A1, “PHARMACEUTICAL COMPOSITIONS OF ALPHA-2-ADRENERGIC RECEPTOR AGONISTS AND THEIR USE FOR IMPROVING VISION” (Allergan, Inc., priority 2020, published 2024).

Read-outs that look alike come from different tables or passages of the source.

The target of one data set is T1, human alpha-2A receptor (Homo sapiens, UniProt P08913).
T1 construct: expressed in transfected cells
T1 sequence (P08913 1-465): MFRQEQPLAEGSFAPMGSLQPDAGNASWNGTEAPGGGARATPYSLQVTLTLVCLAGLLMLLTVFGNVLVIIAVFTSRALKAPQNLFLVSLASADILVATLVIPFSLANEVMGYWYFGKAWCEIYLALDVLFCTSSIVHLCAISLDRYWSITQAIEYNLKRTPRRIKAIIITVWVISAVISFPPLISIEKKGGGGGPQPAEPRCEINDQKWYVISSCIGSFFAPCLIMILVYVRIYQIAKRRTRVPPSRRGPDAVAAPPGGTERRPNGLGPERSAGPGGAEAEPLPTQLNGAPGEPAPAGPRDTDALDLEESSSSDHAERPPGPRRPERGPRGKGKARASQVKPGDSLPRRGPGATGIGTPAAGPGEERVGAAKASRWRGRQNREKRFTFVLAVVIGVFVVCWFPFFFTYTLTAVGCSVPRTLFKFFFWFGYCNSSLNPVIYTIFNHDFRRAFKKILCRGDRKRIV
Description: FLIPR calcium assay, HEK293 cells with human alpha-2A receptor coupled via chimeric Gqi5. It is filed as cell-based. The protocol:
(§1) An in vitro FLIPR (fluorometric image plate reader) assay was performed on several compounds, including the compound of Formula I (entry 1 in Table 1).
Specifically, four HEK293 stable cell lines were used in the FLIPR assay. The HEK293 cell line which stably expressed the bovine alpha adrenergic 1A receptor was used to characterize the alpha1 pharmacology. The alpha-2 adrenergic receptor family is a G coupled G-protein receptor. Therefore, in order to use these cell lines in the calcium based FLIPR assay, the chimeric G-protein Gqi5 was used to force the coupling of the human alpha-2A, alpha-2B, and alpha-2C receptors to the calcium pathway. Cells were plated, in triplicate, in poly-D-lysine coated 384-well plates at 25,000 cells per well and grown overnight in DMEM supplemented with 10% fetal bovine serum. For FLIPR evaluation, cells were washed twice with HBSS/HEPES buffer (1× Hanks Buffered Salt Solution, 20 mM HEPES, pH 7.4) prior to the addition of Fluo-4-AM (4 uM Fluo-4-AM, 0.04% pluronic acid in HBSS/HEPES buffer), a calcium-sensitive dye. Cells were loaded with dye for 40 minutes at 37° C., and then washed 4 times with HBSS/HEPES buffer to remove the excess dye. The test compounds were profiled at concentrations between 0.64 nM and 10,000 nM using a […] dilution factor.
(§2) The receptor activation was initiated by the addition of the appropriate dilutions of compounds and the transient calcium signal was captured. The peak height of the calcium curve was determined and utilized for calculation of EC50 and relative efficacy values using Activity Base software. EC50 was calculated using a 4 Parameter Logistic Equation: y=A+((B−A)/(1+((C/x)^D))) where A and B represents the bottom and top plateau of the curve; C represents the EC50 value; D represents the slope factor; and x and y represent the original x (drug concentration) and y (fluorescence signal, RFU) values.

In the next data set the test system is Dutch Belted rabbits. The data set is described as follows: In vivo rabbit miosis model (pupil diameter after single topical dose). The conditions noted are these: for miotic efficacy compared with other alpha adrenergic receptor agonists: topical dose, low-light conditions (2-10 Lux); for animals with greater than 2.5 mm reduction in pupil size from baseline: 0.1% w:v, scotopic (<10 lux), n=6. The protocol:
Female Dutch Belted rabbits (Covance, Princeton, New Jersey) weighing between 2-4 kg were used for these studies. […] For topical dosing, eye drops (volume=35 μl) were instilled into the lower conjunctival sac of the test eye.
Pupil diameter was measured in both the treated and untreated eye with an Optistick to the nearest 0.5 mm. […]

The procedure of data set [1]: Aliquots of the PBS only curve were quenched at time zero to be used as stability controls and calibration standards. Following centrifugation, samples were analyzed by LC-MS/MS bioanalysis. Back-calculated concentrations using the assay PBS curve were used for binding and stability calculations.
For data set [2], the target named is T2, bovine alpha adrenergic 1A receptor (Bos taurus, UniProt P18130).
T2 construct: expressed in transfected cells
T2 sequence (P18130 1-466): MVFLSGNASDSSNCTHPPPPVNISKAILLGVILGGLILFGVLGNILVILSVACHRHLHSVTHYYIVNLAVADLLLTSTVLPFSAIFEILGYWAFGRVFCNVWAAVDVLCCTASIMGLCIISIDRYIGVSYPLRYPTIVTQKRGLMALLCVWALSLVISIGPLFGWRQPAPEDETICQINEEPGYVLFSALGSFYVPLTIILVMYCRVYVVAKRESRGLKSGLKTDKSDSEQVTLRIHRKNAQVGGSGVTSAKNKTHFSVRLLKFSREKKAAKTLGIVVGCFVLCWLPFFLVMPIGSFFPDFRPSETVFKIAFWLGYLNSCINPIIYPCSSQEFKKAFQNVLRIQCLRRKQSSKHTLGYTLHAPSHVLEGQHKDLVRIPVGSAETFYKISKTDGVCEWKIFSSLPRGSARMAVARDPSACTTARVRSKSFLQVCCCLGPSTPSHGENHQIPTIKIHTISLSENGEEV
Description: FLIPR calcium assay, HEK293 cells stably expressing bovine alpha 1A receptor. It is filed as cell-based. The conditions noted are these: HEK293 stable cell line, peak calcium signal; read-out: bovine alpha1A EC50 (nm). The protocol: as §1
Specifically, four HEK293 stable cell lines were used in the FLIPR assay. The HEK293 cell line which stably expressed the bovine alpha adrenergic 1A receptor was used to characterize the alpha1 pharmacology. The alpha-2 adrenergic receptor family is a G coupled G-protein receptor. Therefore, in order to use these cell lines in the calcium based FLIPR assay, the chimeric G-protein Gqi5 was used to force the coupling of the human alpha-2A, alpha-2B, and alpha-2C receptors to the calcium pathway. […]
as §2

A further data set deals with presbyopic patients. The settings on record: different lighting conditions; cited from earlier work.

Broadly, the EC50 is the concentration giving half of the maximal effect. As for `CCc1c(N=C2NCCN2)ccc2[nH]cnc12` [Compound 2, reference compound], the EC50 on human alpha-2A receptor came to 11 nM. In the data set on Dutch Belted rabbits, the “miotic efficacy compared with other alpha adrenergic receptor agonists” value is on record as “much less than brimonidine”.

Turning to `Brc1c(N=C2NCCN2)ccc2[nH]cnc12` [Compound 3, reference compound], on human alpha-2A receptor (HEK293 stable cell line with Gqi5, peak calcium signal, read-out: human alpha2A EC50 (nm)), the EC50 is 1 nM. Also, the “miotic efficacy compared with other alpha adrenergic receptor agonists” value in the data set on Dutch Belted rabbits is listed as “much less than brimonidine”.

For `Brc1c(NC2=NCCN2)ccc2nccnc12` [Compound 4, brimonidine, reference compound], in data set [1], the “melanin binding (in words)” value is reported as “much more significant binding”. In data set [2], the EC50 came to 1200 nM. For the same compound, the “average pupil size after brimonidine” value in the data set with presbyopic patients was 3.4 mm. The “animals with greater than 2.5 mm reduction in pupil size from baseline” value in the data set on Dutch Belted rabbits (after 6 hours) was “virtually none of the animals”; with Dutch Belted rabbits (half hour after dosing) it was “much less than half of the animals”.
